Drawing on PubChem BioAssay AID449762 (Southern Research Specialized Biocontainment Screening …, 2010), this text covers IC50 and IC90 for 52 molecules.

Results filed as inconclusive are left out.

This assay deals with M. tuberculosis H37Rv growth inhibition, 7H9 media. Description: M. tuberculosis growth inhibition, HTS (AID 449762).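 As to all read-outs here: bacterial growth assessed after seven days of incubation.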 The conditions noted are these: for IC90: measured here: IC90 growth inhibition.

As to `NC(=O)N=Nc1c2[nH]c3ccccc3nc-2c2ccccc12`, the half-inhibitory concentration (IC50) was 4.36 µM and the concentration for an effect of 90% (IC90) was 7.08 µM.

In the case of `CN1C2CCC1/C(=C/c1ccccn1)C(=O)/C2=C\c1ccccn1`, the IC50 is 16.4 µM and the IC90 worked out at 25.8 µM.

In the case of `CCOC(=O)c1c(NC(=O)CCl)sc(CN(C)C)c1-c1ccccc1`, the IC50 is 0.92 µM and the 90% effect concentration (IC90) was 4.68 µM.

Regarding `CSc1ccccc1C(=O)NC1CCSc2ccccc21` (centres undefined), the IC50 was 9.3 µM and the concentration for an effect of 90% (IC90) was more than 100 µM.

Turning to `C#CCn1c(=NC(=O)c2cc(Cl)sc2Cl)sc2cc(S(N)(=O)=O)ccc21`, the half-maximal inhibitory concentration (IC50) was 3.37 µM and the IC90 was more than 100 µM.

With `CCc1ccc(-c2nn(-c3ccccc3)cc2CSC(=N)N)cc1`, the half-maximal inhibitory concentration (IC50) was 17.5 µM and the IC90 was 22.4 µM.

With `O=C(N/N=C\c1ccc[nH]1)c1cncc(Br)c1`, the half-maximal inhibitory concentration (IC50) is 25.2 µM and the concentration for an effect of 90% (IC90) was 49 µM.

As to `O=C(NCCc1ccc(Cl)cc1)c1ccc(CS(=O)Cc2ccc(Cl)cc2)o1` (centres undefined), the half-maximal inhibitory concentration (IC50) is 37.7 µM and the concentration for an effect of 90% (IC90) came to 49.1 µM.

In the case of `NC(N)=N/N=C/c1ccc(N(c2ccccc2)c2ccccc2)cc1`, the IC50 was 10.9 µM and the 90% effect concentration (IC90) was 13.7 µM.

In the case of `CCOC(=O)c1cnc(-n2nc(C)cc2C)nc1NNc1cc(C)nc(-c2ccccc2)n1`, the half-inhibitory concentration (IC50) was 23.7 µM and the IC90 came out at 92 µM.

For the molecule `CS(=O)(=O)c1ccc([C@@H](O)[C@@H](CF)NC(=O)C(Cl)Cl)cc1`, the half-maximal inhibitory concentration (IC50) was 10.1 µM and the IC90 was 24.7 µM.

With `COc1ccc(-n2nc3c(c2NC(=O)CCl)CSC3)cc1`, the IC50 was 4.85 µM and the 90% effect concentration (IC90) was determined as 9.39 µM.

Consider `N[C@@H](CCl)C(=O)O`, for which the 50% inhibitory concentration (IC50) is 39.4 µM and the concentration for an effect of 90% (IC90) is 58.9 µM.

For the molecule `COc1cccc2c1C(=O)c1c(O)c3c(c(O)c1C2=O)C[C@@](O)(C(=O)CO)C[C@@H]3O[C@H]1C[C@H](N)[C@@H](O)[C@H](C)O1`, the IC50 was 2.64 µM and the 90% effect concentration (IC90) is 4.86 µM.

Turning to `CCCCNc1nc(N(C)c2ccccc2)nc(-n2ccnc2)n1`, the 50% inhibitory concentration (IC50) is 10.8 µM and the IC90 is more than 25 µM.

As to `CCN(CC)c1ccc(N)cc1`, the half-inhibitory concentration (IC50) was 7.15 µM and the IC90 was 9.95 µM.

For `N#Cc1c([N+](=O)[O-])cc([N+](=O)[O-])cc1S(=O)(=O)Cc1ccccc1`, the concentration for half-maximal inhibition (IC50) is 15.3 µM and the IC90 worked out at 22.6 µM.

As for `C=CCOC(=O)COc1ccc2c(C)c(CC)c(=O)oc2c1`, the IC50 was 1.08 µM and the IC90 was 2.21 µM.

Regarding `c1ccc(C2[C@H]3CN(CC4CCCCC4)[C@H](c4ccccc4)C34CC2(c2cccnc2)C4)cc1` (some centres undefined), the 50% inhibitory concentration (IC50) is 31.4 µM and the IC90 stood at 41.5 µM.

Take `Nc1nc2ccccc2n1/N=C/c1ccc(Br)cc1`: the IC50 is 12.2 µM and the IC90 was more than 25 µM.

Consider `O=C(OCn1nnc2ccccc2c1=O)C1CCCCC1`, for which the half-maximal inhibitory concentration (IC50) was 3.56 µM and the IC90 stood at 7.16 µM.

As to `O=C(OCc1nc2ccccc2s1)c1ccc(Br)o1`, the IC50 was 18.9 µM and the IC90 is more than 100 µM.

Regarding `Cc1nn(-c2ccccc2)c(N)c1N=Nc1ccc(Cl)cc1`, the half-maximal inhibitory concentration (IC50) is 27.3 µM and the IC90 came out at 41.5 µM.

Turning to `N#CC1=C(c2ccccc2)/C(=C/c2ccccc2)OC1=O`, the IC50 is 10.2 µM and the IC90 was 20.1 µM.

For the molecule `Cc1nc(S/C(=C/c2ccc(-c3ccc(Cl)cc3)o2)C(=O)O)n[nH]1`, the IC50 was 18.4 µM and the IC90 was more than 100 µM.

For the molecule `Cc1csc(NC(=S)Nc2cccc(Cl)c2)n1`, the concentration for half-maximal inhibition (IC50) is 2.76 µM and the concentration for an effect of 90% (IC90) was determined as 6.01 µM.

As for `COc1ccc(-c2oc(NC(=O)CCl)c(C#N)c2-c2ccc(OC)cc2)cc1`, the half-inhibitory concentration (IC50) is 12.5 µM and the concentration for an effect of 90% (IC90) is 54.7 µM.

Take `CCCCn1nc(C(=O)N[C@@H](CCSC)c2nc3ccccc3[nH]2)c2ccccc2c1=O`: the half-maximal inhibitory concentration (IC50) is 53 µM and the IC90 is 78.5 µM.

As for `CSc1ccc(CNC(=O)c2ccc(NC(=O)C3=CSCCO3)cc2)cc1`, the IC50 was 0.66 µM and the IC90 is more than 100 µM.

In the case of `CN(C)c1ccc(-c2cc(O)c3ncccc3c2)cc1`, the half-inhibitory concentration (IC50) is 2.55 µM and the IC90 was determined as 4.17 µM.

On to `Cc1cc(-n2c(C)cc(C(=O)COc3ccc4ccc(=O)oc4c3)c2C)no1`, for which the 50% inhibitory concentration (IC50) was 68.6 µM and the IC90 was more than 100 µM.

Take `Cc1ccc(-c2nc3ccsc3c(=O)o2)cc1`: the concentration for half-maximal inhibition (IC50) was 0.61 µM and the IC90 is more than 100 µM.

As for `CCOc1cc(NC(=O)CCl)c(OCC)cc1NC(C)=O`, the IC50 was less than 0.2 µM and the IC90 is 5.99 µM.

Take `CNc1nc(-c2ccccn2)nnc1-c1ccccc1`: the IC50 is 12.1 µM and the IC90 was 19 µM.

As for `O=C(Nc1nnc(C2=COCCO2)o1)c1ccc(Cc2ccccc2)cc1`, the IC50 was 3.26 µM and the concentration for an effect of 90% (IC90) is 9.81 µM.

With `C/C(=N\NC(=O)COc1ccc(C)cc1Br)c1cc([N+](=O)[O-])cs1`, the IC50 was 4.07 µM and the IC90 came out at 34.1 µM.

Consider `COc1ccc(NC(=O)CSc2nnc(-c3ccccn3)n2N)cc1Cl`, for which the IC50 is 18.1 µM and the IC90 was more than 100 µM.

In the case of `S=c1nc[nH]c2nc[nH]c12`, the IC50 was 3.08 µM and the IC90 is 3.43 µM.

Regarding `Oc1ccc(-[n+]2c(-c3ccccc3)cc(-c3ccccc3)cc2-c2ccccc2)cc1`, the half-maximal inhibitory concentration (IC50) was 11.7 µM and the 90% effect concentration (IC90) was 18.8 µM.

For `CCCNC1=C(N(C(C)=O)c2cccc(F)c2)C(=O)c2ccccc2C1=O`, the half-maximal inhibitory concentration (IC50) was 11.4 µM and the concentration for an effect of 90% (IC90) turned out to be 20.1 µM.

With `CC1(C)OC(=O)C(=Cc2ccc[nH]2)C(=O)O1`, the half-inhibitory concentration (IC50) was less than 0.2 µM and the concentration for an effect of 90% (IC90) was found to be 24.1 µM.

For `COc1ccc(N2C(=O)C(Cl)=C(Nc3ccccc3O)C2=O)cc1`, the concentration for half-maximal inhibition (IC50) was 14.2 µM and the concentration for an effect of 90% (IC90) was found to be 25.7 µM.

Regarding `COc1cc(N)c(Cl)cc1C(=O)N[C@H]1CCN(CCCOc2ccc(F)cc2)C[C@H]1OC`, the IC50 was 43.8 µM and the IC90 turned out to be 55.2 µM.

With `O=C(CCc1ccc(Oc2cc([N+](=O)[O-])cc([N+](=O)[O-])c2)cc1)N1CCCCCC1`, the IC50 is 4.2 µM and the 90% effect concentration (IC90) is 27 µM.

Regarding `CC(C)Oc1ccc(C(=O)N/N=C/c2ccc(-c3ccc(S(=O)(=O)Nc4ncccn4)cc3)o2)cc1`, the IC50 is 19.2 µM and the IC90 is 37.4 µM.

Turning to `Cc1oc(-c2cccc(Cl)c2)nc1CN1CCC(C(=O)N2CCN(c3ccccc3F)CC2)CC1`, the half-maximal inhibitory concentration (IC50) is 20.8 µM and the IC90 was found to be 26.3 µM.

Take `CC1(C)Cc2c(sc(NC(=O)c3ccc(C(=O)c4ccccc4)cc3)c2C(N)=O)C(C)(C)N1`: the IC50 is 22.5 µM and the IC90 was more than 100 µM.

On to `COc1ccc(-n2c(-c3ccc(Cl)cc3)c[n+]3c2CCc2ccccc2-3)cc1`, for which the IC50 is 16.4 µM and the 90% effect concentration (IC90) amounted to 24.2 µM.

In the case of `CCCc1cc(=O)n2[nH]c(C)c(-c3ccc(Cl)cc3)c2n1`, the 50% inhibitory concentration (IC50) is 6.8 µM and the IC90 is 18.1 µM.

Regarding `O[C@@H](c1cc(C(F)(F)F)nc2c(C(F)(F)F)cccc12)[C@H]1CCCCN1`, the half-maximal inhibitory concentration (IC50) was 18.2 µM and the concentration for an effect of 90% (IC90) came out at 24.5 µM.

Regarding `COc1ccccc1-c1cc(C(=O)NC2CCN(C)CC2)c2ccc(Cl)c(C)c2n1`, the half-maximal inhibitory concentration (IC50) is 70.9 µM and the IC90 came to 95 µM.

Consider `Cc1ccc(C)c(C2C(=O)c3ccccc3C2=O)c1`, for which the IC50 was 3.94 µM and the concentration for an effect of 90% (IC90) was determined as 16.3 µM.

Usually IC50 stands for the concentration that inhibits the measured activity by half. What is called IC90 is the point of the concentration-response curve where the effect stands at 90%. Low values mean greater potency, high ones weaker potency.
